# From paper PMC4354947 (Journal of medicinal chemistry, 2012)
# Where two headings read alike, the source gives them in different places.
# How the values were obtained:
# [1] = system: human eNPP1; assay: Resistance to degradation by human eNPP1; assay type: in vitro ADME; settings: after 20 min, 37 °C, pH 8.5
# [2] = molecular target: T1, turkey P2Y1 receptor (Meleagris gallopavo, UniProt P49652); settings: read-out: EC50 at P2Y1R, cited from earlier work
# [3] = system: insulin secretion; settings: cited from earlier work
# [4] = system: isolated rat pancreas; settings: listed as IA; cited from earlier work
# [5] = Chemical stability at acidic pH 1.4; assay type: physicochemical; settings: pH 1.4, 37 °C, pseudo-first-order model
# [6] = system: blood glucose levels; assay: Oral glucose tolerance test in naive mice; assay type: in vivo, mouse; settings: OGTT; for effect on blood glucose levels: 30 mg/kg iv
# [7] = system: blood glucose levels; assay: Glucose tolerance test in db+/db- diabetic mouse model; assay type: in vivo; settings: db+/db− mice, 30 mg/kg iv
# [8] = system: P2Y4 receptor; assay: Agonist activity at P2Y4 receptor; assay type: cell-based; settings: data not shown
# [9] = system: P2Y6 receptor; assay: Agonist activity at P2Y6 receptor; assay type: cell-based; settings: data not shown
# [10] = system: blood glucose levels; assay: Oral glucose tolerance test in naive rats; assay type: in vivo, rat; settings: OGTT, 30 mg/kg iv, within 45 min, saline 155 mg/dL
# [11] = molecular target: T1, turkey P2Y1 receptor; assay: Increase in [Ca2+]i in 1321N1 astrocytoma cells expressing turkey P2Y1 receptor; assay type: cell-based
# [12] = system: P2Y2 receptor; assay: Agonist activity at P2Y2 receptor; assay type: cell-based; settings: data not shown
# [13] = system: tail bleeding; assay: Tail-bleed assay in rats, oral administration; assay type: in vivo, rat; settings: oral 30 mg/kg, 30 min before tail-cut
# [14] = Solubility in aqueous media; assay type: physicochemical
# [15] = system: blood glucose levels; assay: Glucose tolerance test in STZ diabetic mouse model; assay type: in vivo; settings: STZ diabetic mice, 30 mg/kg iv
# [16] = read-out: EC50 at P2Y1R, increase in [Ca2+]i, human 1321N1 astrocytoma cells, turkey P2Y1R
# T1 sequence (P49652 whole entry): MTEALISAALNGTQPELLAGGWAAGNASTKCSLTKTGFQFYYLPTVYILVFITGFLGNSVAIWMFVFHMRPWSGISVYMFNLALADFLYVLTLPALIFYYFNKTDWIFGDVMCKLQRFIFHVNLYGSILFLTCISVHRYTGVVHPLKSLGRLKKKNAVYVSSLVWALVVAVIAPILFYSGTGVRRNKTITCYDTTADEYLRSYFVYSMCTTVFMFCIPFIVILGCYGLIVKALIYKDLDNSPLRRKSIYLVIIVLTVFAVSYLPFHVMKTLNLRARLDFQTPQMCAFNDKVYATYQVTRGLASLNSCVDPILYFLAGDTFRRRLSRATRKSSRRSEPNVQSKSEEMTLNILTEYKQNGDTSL
compound,measurement,setting,value
"CSc1nc(N)c2ncn([C@@H]3O[C@H](COP(=O)(O)OP(=O)(O)O)[C@@H](O)[C@H]3O)c2n1 [2-MeS-ADP, reference compound]",% hydrolysis of human eNPP1,[1],16%
"Nc1ncnc2c1ncn2[C@@H]1O[C@H](COP(=O)(O)OP(=O)(O)O)[C@@H](O)[C@H]1O [ADP, adenosine 5′ diphosphate, reference compound]",% hydrolysis of human eNPP1,[1],25%
BP(=O)(OCC1OC(n2cnc3c(N)ncnc32)C(O)C1O)OP(=O)(O)OP(=O)(O)OCC1OC(n2cnc3c(N)ncnc32)C(O)C1O (stereo not drawn) [Ap3(α-B)A],EC50,[2]; first-named (A) isomer,760 nM
same,EC50,[2]; second-named (B) isomer,800 nM
"[BH3-][P@@](=O)(OC[C@H]1O[C@@H](n2cnc3c(N)nc(SC)nc32)[C@H](O)[C@@H]1O)OP(=O)([O-])OP(=O)([O-])[O-].[Na+].[Na+].[Na+].[Na+] [analogue 1A, 2-methylthio-ATP(α-B)]",insulin secretion in vivo,[3],failed to induce insulin secretion in vivo
same,increase of insulin secretion over basal secretion,[4],up to 9 fold
"[BH3-][P@@](=O)(OC[C@H]1O[C@@H](n2cnc3c(N)ncnc32)[C@H](O)[C@@H]1O)OP(=O)([O-])[O-].[Na+].[Na+].[Na+] [analogue 2A, ADP(α-B)]",% hydrolysis of human eNPP1,[1],5%
"[BH3-]P(=O)(OC[C@H]1O[C@@H](n2cnc3c(N)nc(SC)nc32)[C@H](O)[C@@H]1O)OP(=O)([O-])[O-].[Na+].[Na+].[Na+] (stereo partly shown) [analogue 3, 2-Methylthioadenosine 5′-O-(′-Borano)diphosphate]",hydrolysis rate constant at pH 1.4,[5],2 × 10^−5 s^−1
same,effect on blood glucose levels,[6],less effective than analogue 3A alone
"[BH3-][P@@](=O)(OC[C@H]1O[C@@H](n2cnc3c(N)nc(SC)nc32)[C@H](O)[C@@H]1O)OP(=O)([O-])[O-].[Na+].[Na+].[Na+] [analogue 3A, 2-Methylthioadenosine 5′-O-(′-Borano)diphosphate, A Isomer]",effect on blood glucose levels,[7],lower blood glucose levels to normal values
same,% hydrolysis of human eNPP1,[1],4%
same,agonist activity at P2Y4 receptor,[8],no activity
same,agonist activity at P2Y6 receptor,[9],no activity
same,blood glucose level after glucose load,[10],ca. 87 mg/dL
same,EC50,[11],38 nM
same,agonist activity at P2Y2 receptor,[12],no activity
same,bleeding time,[13],increased
same,tail bleeding blood volume,[13],increased
same,solubility in aqueous media,[14],highly soluble
same,"effect on blood glucose levels, dose comparison",[6]; 10 and 30 mg/kg iv,higher dose being more effective at reducing the glucose load
same,effect on blood glucose levels,[15],lower blood glucose levels to normal values
"[BH3-][P@](=O)(OC[C@H]1O[C@@H](n2cnc3c(N)nc(SC)nc32)[C@H](O)[C@@H]1O)OP(=O)([O-])[O-].[Na+].[Na+].[Na+] [analogue 3B, 2-Methylthioadenosine 5′-O-(′-Borano)diphosphate, B Isomer]",effect on blood glucose levels,[6],ineffective
"P1-Borano P1,P3-5′-Di-2-methylthioadenosine 5′-Triphosphate [analogue 4]",fold increase in potency at P2Y1R by MeS substitution at C2,[11]; analogue 4 isomers vs Ap3(α-B)A isomers,4.6 fold
"P^1-Borano P^1,P^3-5′-Di-2-methylthioadenosine 5′-Triphosphate, A Isomer [analogue 4A]",EC50,[11]; [16],140 nM
"P^1-Borano P^1,P^3-5′-Di-2-methylthioadenosine 5′-Triphosphate, B Isomer [analogue 4B]",EC50,[11]; [16],190 nM
